This is an account of results in US7700543B2, “Use NF-κB inhibition in combination therapy for cancer” (The University of North Carolina at Chapel Hill, priority 1997, dated 2010).

The subject of assay [1] is NF-κB. In words: NF-κB activation by CPT-11 (data not shown). It counts as cell-based.
The subject of assay [2] is HT1080V cells. Put plainly: Cell viability experiments, enhancement of TNF-induced cell killing by proteasome inhibitor. It counts as cell-based, human. To be noted: dose-dependent, data not shown. The text has this: The effect of a proteasome inhibitor on TNF-treated cells was investigated. Proteasome inhibitors of the peptide aldehyde category are potent inhibitors of NF-κB activation (Palombello et al., Cell 78:773 (1994); Chen et al., Genes Dev. 9:1586 (1995)). […] Cell viability experiments were used to monitor the effectiveness of MG132 in enhancing TNF-induced cell killing.

The subject of assay [3] is HT1080 fibrosarcoma cells. In words: Cell survival by crystal violet assay in HT1080V and HT1080I cells. It counts as cell-based, human. The method, then:
HT1080V (open squares) and HT1080I cells (solid diamonds) were treated with TNFα (20 ng/ml) for varying times and surviving cells were quantified by crystal violet assay (Mehlen et al., EMBO J. 15:2695 (1996)). Data shown (FIG. 1A) are the mean of three independent experiments ±SD, and the percentage cell survival was defined as the relative number of TNF treated versus untreated cells.
HT1080V and HT1080I cells were preincubated with 10 ng/ml IL-1β (R & D Systems) for 5 hours (+Pre IL-1), or were left untreated. Cells were then treated with 10 μg/ml cycloheximide (CHX) and different concentrations of TNFα (0-50 ng/ml). Surviving cells were quantified by crystal violet assay (Mehlen et al., EMBO J. 15:2695 (1996)). […] Open squares represent HT1080V cells without IL-1 pretreatment; closed squares represent HT1080V cells pretreated with IL-1; circles represent HT1080I cells without IL-1 pretreatment; triangles represent HT1080I cells pretreated with IL-1.

Assay [4] deals with NF-κB. In words: Electrophoretic mobility-shift assay (EMSA) of NF-κB nuclear translocation in HT1080V and HT1080I cells. Format: cell-based, human. The method, then:
HT1080 fibrosarcoma cells were co-transfected with the pCMV empty vector to produce control cells HT1080V; HT1080 cells co-transfected with the pCMV vector containing a cDNA encoding the super-repressor IκBα and with the pCEP4 vector for hygromycin B selection (400 μg/ml) provided HT1080I cells that expressed the super-repressor IκBα.
On the technique in general: Mobility shift assays separate free from complexed probe on a gel.

For assay [5], the system named is HT1080V and HT1080I cells. Put plainly: Cell viability of HT1080V and HT1080I cells treated with cytotoxic agent (data not shown). It counts as cell-based, human. The method, then:
The present inventors' preliminary data additionally indicate that cell killing by vincristine is augmented by the inhibition of NF-κB (data not shown). HT1080V and HT1080I cells were treated with vincristine and cell viability was determined.

The subject of assay [6] is HT1080 fibrosarcoma cells. In words: TNF-induced apoptosis detected by TUNEL staining. Format: cell-based, human. To be noted: 50 ng/ml TNFα for 7 hr; HT1080V and HT1080I cells; FIG. 1B. On the procedure: TNF-induced apoptosis was detected by TUNEL staining (Graeber et al., Nature 379:88 (1996)). HT1080V (V) and HT1080I (I) cells were untreated (−TNF) or stimulated (+TNF) with 50 ng/ml TNFα for 7 hr and fixed with 4% paraformaldehyde. The staining was done according to the manufacturer's instructions (Boehringer Mannheim).

Entries after “also recorded” stand apart in the source; their conditions may differ. Peptide text beside a SMILES is read from it. * marks the point of attachment. Cbz = O=C(OCc1ccccc1)*

With `CCc1c2c(nc3ccc(OC(=O)N4CCC(N5CCCCC5)CC4)cc13)-c1cc3c(c(=O)n1C2)COC(=O)[C@]3(O)CC` [CPT-11, irinotecan], the “Activation of NF-κB” value in assay [1] is listed as “determined to activate NF-κB”.

With `CC(C)C[C@@H](C=O)NC(=O)[C@H](CC(C)C)NC(=O)[C@H](CC(C)C)NC(=O)OCc1ccccc1` [MG132, Z-leu-leu-leu-H] (Cbz-Leu-Leu-Leu-aldehyde), the “Enhancement of TNF-induced killing” value in assay [2] is “strongly enhanced TNF-induced killing of HT1080V cells”.

Turning to `COc1cccc2c1C(=O)c1c(O)c3c(c(O)c1C2=O)C[C@@](O)(C(C)=O)C[C@@H]3O[C@H]1C[C@H](N)[C@H](O)[C@H](C)O1` [daunorubicin], the “Cell survival after daunorubicin, HT1080I versus control cells” value in assay [3] (0.1 to 2.0 μM for 24 hours, FIG. 3B) is “reduced in HT1080I cells”.

Turning to `CN[C@@H]1C[C@H]2O[C@@](C)([C@@H]1OC)n1c3ccccc3c3c4c(c5c6ccccc6n2c5c31)C(=O)NC4` [staurosporine], in assay [4] (HT1080V cells, 1 μM daunorubicin or 50 nM staurosporine), the “NF-κB nuclear translocation (EMSA) in control cells” value is given as “did not activate NF-κB; also recorded: only slight nuclear translocation of NF-κB was evident”. Moreover, the “Apoptosis induced in IκBα expressing cells versus control” value in assay [5] (HT1080I cells, data not shown) is “not enhanced by the expression of IκBα”.

Regarding `CC[C@]1(O)C[C@H]2CN(CCc3c([nH]c4ccccc34)[C@@](C(=O)OC)(c3cc4c(cc3OC)N(C=O)[C@H]3[C@@](O)(C(=O)OC)[C@H](OC(C)=O)[C@]5(CC)C=CCN6CC[C@]43[C@@H]65)C2)C1` [vincristine], in assay [5] (preliminary data, not shown), the “Cell killing in HT1080I versus HT1080V cells” value is “Cell killing in HT1080I cells was enhanced compared to that in HT1080V cells”.

On to “IL-1: an activator of NF-κB that does not initiate apoptosis”, for which, in assay [3] (10 ng/ml IL-1β for 5 hours, then 10 μg/ml CHX and TNFα 0-50 ng/ml, FIG. 2A), the “Effect of pre-treatment on TNFα+CHX-induced apoptosis in HT1080V cells” value is recorded as “inhibited TNFα+CHX-induced apoptosis in HT1080V cells”. In addition, in assay [3] (HT1080I cells, NF-κB activation blocked, FIG. 2A), the “Effect of pre-treatment on CHX+TNF-induced killing in HT1080I cells” value is listed as “no protective effect”.

In the case of TNFα, the “Apoptotic morphology by TUNEL staining” value in assay [6] was “only super-repressor IκBα expressing cells showed apoptotic morphology”. Besides, in assay [3] (TNFα 20 ng/ml, varying times, FIG. 1A), the “Cell survival after TNFα, HT1080I versus HT1080V” value was “Cell survival was reduced in HT1080I cells compared to HT1080V controls”.

B1: super-repressor IκBα: mutant IκBα with serine to alanine mutations at residues 32 and 36; binds NF-κB and inhibits nuclear translocation (protein, UniProt P25963 1-317, looked up, variant S32A S36A)
NF-kappa-B inhibitor alpha: MFQAAERPQEWAMEGPRDGLKKERLLDDRHDAGLDAMKDEEYEQMVKELQEIRLEPQEVPRGSEPWKQQLTEDGDSFLHLAIIHEEKALTMEVIRQVKGDLAFLNFQNNLQQTPLHLAVITNQPEIAEALLGAGCDPELRDFRGNTPLHLACEQGCLASVGVLTQSCTTPHLHSILKATNYNGHTCLHLASIHGYLGIVELLVSLGADVNAQEPCNGRTALHLAVDLQNPDLVSLLLKCGADVNRVTYQGYSPYQLTWGRPSTRIQQQLGQLTLENLQMLPESEDEESYDTESEFTEFTEDELPYDDCVFGGQRLTL
Consider B1, for which the “Effect on TNF-stimulated NF-κB nuclear translocation (EMSA)” value in assay [4] (expressed in HT1080I cells, data not shown) was “efficiently blocked TNF-stimulated NF-κB nuclear translocation”.
